assay: recombinant UMI read abundance after kanamycin selection (control-corrected) (log10(CPM+1)); higher = more efficient recombination; extreme values may be limits of the assay; sequences stand for … in AGTGCAGAGAAAATCGGCCAGTTTTCTCTGCCTGCAGTCCGCATGCCGTGGGACCCCTTGGGTTCTAACCTGTTGCCTAGATTTATGCAGCGGACTGCCTTTCTCCCAAAGTGATAAACCGG…AGGTTGGTTTCACT; site = the 11-nt donor
How it was run: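 In a pooled Escherichia coli screen for the IS621 bridge recombinase, donor and donor-binding-loop pairs were each placed with a 12-nt UMI on a plasmid bearing a promoterless kanamycin gene. This library was co-electroporated with a target plasmid encoding a fixed target and T7-inducible recombinase, and cells were plated either on IPTG (0.07 mM) plus kanamycin or without selection, in two replicates each. Recombinant UMIs were PCR-amplified across the donor–target junction and sequenced, and counts were converted to CPM, averaged over replicates, scaled by control-derived factors and reported as log10(CPM+1).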
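Note: IS621 bridge recombinase in Escherichia coli cells against a fixed T5 target plasmid.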

Sequence | recombinant UMI read abundance (log10)
GCGAAAACATGGACCGGTTTTCCCGGTAATCCGTATTTGAT (site GCGAAAACTAG) | 0
GCGAAAACATGGACCGGTTTTCCCGGTAATCCGTATTTGAT (site GCGAAAACTAT) | 1.66
GCGAAAACATGGACCGGTTTTCCCGGTAATCCGTATTTGTT (site GCGAAAACTAA) | 2.31
GCGAAAACATGGACCGGTTTTCCCGGTAATCCGTATTTGTT (site GCGAAAACTAC) | 0
GCGAAAACATGGACCGGTTTTCCCGGTAATCCGTATTTGTT (site GCGAAAACTAG) | 1.18
GCGAAAACATGGACCGGTTTTCCCGGTAATCCGTATTTGTT (site GCGAAAACTAT) | 0
GCGAAACCATGGACCGGTTTTCCCGGTAATCCGTATTTGCT (site GCGAAAACTAG) | 0
GCGAAACCATGGACCGGTTTTCCCGGTAATCCGTATTTGCT (site GCGAAACCTAG) | 0
GCGAAACCATGGACCGGTTTTCCCGGTAATCCGTATTTGCT (site GCGAAAGCTAG) | 0
GCGAAACCATGGACCGGTTTTCCCGGTAATCCGTATTTGCT (site GCGAAATCTAG) | 0
GCGAAGCCATGGACCGGTTTTCCCGGTAATCCGTATTTGGT (site GCGAAGCCTAC) | 0.885
GCGAAGCCATGGACCGGTTTTCCCGGTAATCCGTATTTGGT (site GCGAAGCCTCC) | 0.00425
GCGAAGCCATGGACCGGTTTTCCCGGTAATCCGTATTTGGT (site GCGAAGCCTGC) | 0
GCGAAGCCATGGACCGGTTTTCCCGGTAATCCGTATTTGGT (site GCGAAGCCTTC) | 0.234
GCGAAGTCATGGACCGGTTTTCCCGGTAATCCGTATTTGGG (site GCGAAGACTCC) | 0.283
GCGAAGTCATGGACCGGTTTTCCCGGTAATCCGTATTTGGG (site GCGAAGCCTCC) | 0.0096

Sequence | recombinant UMI read abundance (log10)
GCGAAGTCATGGACCGGTTTTCCCGGTAATCCGTATTTGGG (site GCGAAGGCTCC) | 0.019
GCGAAGTCATGGACCGGTTTTCCCGGTAATCCGTATTTGGG (site GCGAAGTCTCC) | 1.21
GCGACTACATGGACCGGTTTTCCCGGTAATCCGTATTTGGC (site GCGACTACTGC) | 1.97
GCGACTGCATGGACCGGTTTTCCCGGTAATCCGTATTTGCC (site GCAACTGCTGG) | 2
GCGACTGCATGGACCGGTTTTCCCGGTAATCCGTATTTGCC (site GCCACTGCTGG) | 0.516
GCGACTGCATGGACCGGTTTTCCCGGTAATCCGTATTTGCC (site GCGACTGCTGG) | 1.65
GCGACTGCATGGACCGGTTTTCCCGGTAATCCGTATTTGCC (site GCTACTGCTGG) | 0
GCGATGCCATGGACCGGTTTTCCCGGTAATCCGTATTTGGG (site GCGAAGCCTCC) | 0.00846
GCGATGCCATGGACCGGTTTTCCCGGTAATCCGTATTTGGG (site GCGACGCCTCC) | 0.0196
GCGATGCCATGGACCGGTTTTCCCGGTAATCCGTATTTGGG (site GCGAGGCCTCC) | 0.0186
GCGATGCCATGGACCGGTTTTCCCGGTAATCCGTATTTGGG (site GCGATGCCTCC) | 0.0291
GCGCAAACATGGACCGGTTTTCCCGGTAATCCGTATTTGCT (site GCGAAAACTAG) | 0
GCGCAAACATGGACCGGTTTTCCCGGTAATCCGTATTTGCT (site GCGCAAACTAG) | 1.59
GCGCAAACATGGACCGGTTTTCCCGGTAATCCGTATTTGCT (site GCGGAAACTAG) | 0
GCGCAAACATGGACCGGTTTTCCCGGTAATCCGTATTTGCT (site GCGTAAACTAG) | 0
GCGCCCACATGGACCGGTTTTCCCGGTAATCCGTATTTGTG (site GCGCCCACTCA) | 0.0198

Source: the supplement of paper PMC11208160
